Results reported in US20230119324A1, “EGFR INHIBITION TRIGGERS AN ADAPTIVE RESPONSE BY CO-OPTING ANTIVIRAL SIGNALING PATHWAYS IN LUNG CANCER” (The United States Government as represented by the …, priority 2020, published 2023).

How the values were obtained:
TBK1 = TBK1 immunoprecipitation and Western blot (TRIM32, K63-Ubiquitin); format: cell-based; conditions: EGFR mutant cell lines; 0.1 µM erlotinib 0, 2, 6, 24 hours
Procedure: (§1) Western blot and immunoprecipitation were performed according to standard protocols. Western blot results are representative of at least 3 independent experiments. EGFR (06-847) antibody was from EMD Millipore (Billerica, MA); p-EGFR (Tyr1068) (2236), p-TBK1 (Ser172) (5483), TBK1 (3504), IKKε (2905), IRF3 (11904), K63-Ub (12930), RIG-I (3743), STAT1 (9172), p-STAT1 (Tyr701) (9167), AhR (83200), LAMIN A/C (4777), STING (3337), p-STING (Ser366) (19781), PD1 (86163), PD-L1 (13684), PD-L2 (82723) and IκBα (4814) antibodies were from Cell Signaling Technology (Danvers, MA); IFNAR1 (sc-7391), IFNGR1 (sc-12755), TNFR1 (sc-8346), and β-Actin (sc-47778) were from Santa Cruz Biotechnology (Dallas, TX); TRIM32 (Mab6515) antibody was from R&D (Minneapolis, MN); p-IRF3 (Ser386) (ab76493) antibody was from Abcam (Cambridge, MA).
This was followed by immunoprecipitation with a TBK1 antibody and Western blot with TRIM32, K63-Ubiquitin, and TBK1 antibodies. TRIM32 and β-Actin from the input samples were also tested.

STING = assay: Western blot for total and phosphorylated STING; format: cell-based; conditions: EGFR mutant or EGFRwt cell lines; 0.1 or 1 µM erlotinib
Procedure: as §1
STING was undetectable in PC9 and A549 cells. Phosphorylated STING can only be detected in HCC2279 cell line.

KRas G12D lung tumors = assay: KRAS LSL-G12D transgenic lung tumor model, MRI; format: in vivo; conditions: oral erlotinib 100 mg/kg/d, i.p. anti-mouse IFNAR1 antibody 3 mg/kg/d, 28 continuous days
Procedure: LSL-Kras G12D mice (008179): were purchased from Jackson laboratories and the colony was expanded by breeding heterozygous LSL-Kras G12D mice with wildtype mice. Genotyping was performed per the protocol on Jackson website. Lung tumors were induced in mice carrying the LSL-Kras G12D allele with intranasal administration of 2.5 x 10^8 PFU Adeno-CMV-Cre (University of Iowa). Treatments were initiated once the tumors were confirmed by with Magnetic resonance imaging (MRI) at about 10-12 weeks after tumor induction.
MRI Imaging was conducted at UT Southwestern Mouse MRI Core, Advanced Imaging Research Center, using a 7T small animal MRI scanner (Bruker, Rheinstetten, Germany) equipped with a 40 mm quadrature Radiofrequency (RF) coil (ExtendMR LLC, Milpitas, CA). […] Finally, higher resolution gradient echo images were recorded on the transverse plane, with the major parameters as follows: The repetition time (TR) = 200 ms (Note: the actual TR is changing according to ECG R-R interval, in range of 200 ms to 240 ms), the echo time (TE) = 1.966 ms, the flip angle (FA) = 45°, the number of average = 12, the field of view (FOV) = 32 x 32 mm^2, the matrix size = 256 x 256, the slice number = 17-21 (changed upon the mouse lung size), and the slice thickness = 1 mm without any gap. […]
Bi-weekly MRI scanning was used to monitor tumor growth. Tumor sizes were calculated by ImageJ. […]

SMILES: C#Cc1cccc(Nc2ncnc3cc(OCCOC)c(OCCOC)cc23)c1 [erlotinib]
- association of TRIM32 with TBK1 (TBK1): TRIM32 forms a complex with TBK1
- ubiquitination of TBK1 (TBK1): K63-linked ubiquitination of TBK1
- increased phosphorylation of STING (STING): unable to be detected
- tumor growth by MRI (KRas G12D lung tumors): robust tumor growth
